In PubChem BioAssay AID1963847 (Molecular Pharmacology Branch, DTP, NCI, 2024):

Tested on: 415267-285-R-J2-PDC complex spheroid viability
Assay: Anticancer human tumor 415267-285-R-J2-PDC patient-derived breast carcinoma cell line growth inhibition [POLQ]
Conditions: for IC50: curve of first compound; for viability, T/C: stronger effect = lower value
Experimental: Multicellular complex tumor spheroid response to Polymerase (POL) inhibitors (novobiocin, ART-558, RP6685) in combination with a variety of drugs and investigational agents in selected tumor cell lines
The POL inhibitors (novobiocin, ART-558, and RP6685) were evaluated both individually and in combination with standard of care and investigational anticancer small molecules within a complex spheroid model of solid tumors. . Complex spheroids include a stromal component modeled by human endothelial cells (HUVEC) and fibroblasts modeled by human mesenchymal stem cells (MSCs). The concentration ranges selected for each drug and investigational agent were based upon clinically achievable concentrations if the clinical Cmax of the agent was known.
Compounds. The drugs and investigational agents: novobiocin (NSC847541), ART-558 (NSC835418), RP-6685 (NSC848927), peposertib (NSC802822), ceralasertib (NSC780249), elimusertib (NSC800525), camonsertib (NSC841442), AZD-1390 (NSC803789), olaparib (NSC753686), talazoparib (NSC767125), rucaparib (NSC756644), sotorasib (NSC818433), MRTX-1133 (NSC836407), SN-38 (NSC673596), topotecan (NSC609699), epotoside (NSC141540), doxorubicin (NSC123127), gemcitabine (NSC613327), 5-fluorouracil (NSC19893), paclitaxel (NSC125973), vemurafenib (NSC761431), MSA-2 (NSC828583), SN-011 (NSC837082), adavosertib (NSC754352), prexasertib (NSC758257), carboplatin (NSC241240) and oxaliplatin (NSC266046), were obtained from the National Cancer Institute (NCI) Developmental Therapeutics Program Chemical Repository (21). The FDA-approved anticancer drug set is available from the Developmental Therapeutics Program at https://dtp.cancer.gov/organization/dscb/obtaining/. […] The stock solutions were prepared in dimethyl sulfoxide (DMSO, Sigma-Aldrich, St. Louis, MO, cat. D2650), except for the platinum compounds which were prepared in saline (Quality Biological, Gaithersburg, MD, cat. 114-055-101), at 800-fold the tested concentration and stored at -70 degrees C prior to their use. All drugs and investigational agents were tested over a range starting from a high concentration at or near the clinical Cmax and decreasing in half-log increments. If the clinical Cmax for an agent had not been determined, the highest concentration tested was 10 microM, except for SN-38, which was tested at a high concentration of 1 microM.
Cell Culture. All cells were maintained in an incubator at 37 degrees C and 5% CO2 with 95% humidity. The PDC lines were cultured according to standard operating procedures established by the NCI PDMR (https://pdmr.cancer.gov). Table 3 of the manuscript, lists the cell lines along with the number of the three cell types plated to form the mct-spheroids and media for tumor cell growth. After thawing, all PDC lines, except 997537-175-T-J1-PDC and 415267-285-R-J2-PDC, were cultured in Matrigel-coated flasks prepared with a working solution of 1X Ham's F-12 nutrient mix, without supplementation (Thermo Fisher Scientific, cat. 11765054), 100 U/mL penicillin-streptomycin (Thermo Fisher Scientific, cat. 15140122), and 2.5% Matrigel (Corning Inc., Corning, NY, cat. 354248) for the first three passages. The two PDC lines 997537-175-T-J1-PDC and 415267-285-R-J2-PDC were cultured on uncoated flasks. The 857933-349-R-J2-PDC line was cultured in 6C/Colon 1B media containing advanced DMEM/F-12 (Thermo Fisher Scientific, cat. 12634028), 10 mM HEPES (Thermo Fisher Scientific, cat. 15630080), 1X GlutaMAX supplement (Thermo Fisher Scientific, cat. 35050061), 0.1 mg/mL primocin (InvivoGen, San Diego, CA, cat. ant-pm-2), 10% defined fetal bovine serum, heat inactivated (HyClone Laboratories Inc., Logan, UT, cat. SH30070.03HI), 50% L-WRN conditioned media (ATCC, cat. CRL-3276), 1.25 mM N-Acetyl-L-cysteine (Sigma-Aldrich, cat. A9165), 10 mM nicotinamide (Sigma-Aldrich, cat. N0636), 1X B-27 supplement (Thermo Fisher Scientific, cat. 17504044), 1X N-2 supplement (Thermo Fisher Scientific, cat. […]

[1] = second compound 0.0316 µM, first compound 0.0316 µM
[2] = second compound 0.0316 µM, first compound 0.1 µM
[3] = second compound 0.1 µM, first compound 0.0316 µM
[4] = second compound 0.1 µM, first compound 0.1 µM
[5] = second compound 0.316 µM, first compound 0.0316 µM
[6] = second compound 0.316 µM, first compound 0.1 µM
[7] = second compound 1 µM, first compound 0.0316 µM
[8] = second compound 1 µM, first compound 0.1 µM
[9] = second compound 3.16 µM, first compound 0.0316 µM
[10] = second compound 3.16 µM, first compound 0.1 µM
[11] = second compound 10 µM, first compound 0.0316 µM
[12] = second compound 10 µM, first compound 0.1 µM
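Further: spheroids exposed to compounds for one week before readout.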
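Wherever viability, T/C is given: luminescence used as stand-in measure of viable cells; 100% = DMSO vehicle control viability.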

CC[C@@]1(O)C(=O)OCc2c1cc1n(c2=O)Cc2cc3c(CN(C)C)c(O)ccc3nc2-1 + COC1C(OC(N)=O)C(O)C(Oc2ccc3c(O)c(NC(=O)c4ccc(O)c(CC=C(C)C)c4)c(=O)oc3c2C)OC1(C)C
IC50 (second compound 0.0316 µM): 18.5 nM | IC50 (second compound 0.1 µM): 22.6 nM | IC50 (second compound 0.316 µM): 22 nM | IC50 (second compound 1 µM): 19.3 nM | IC50 (second compound 3.16 µM): 19.4 nM | IC50 (second compound 10 µM): 19.6 nM | viability, T/C (second compound 0.0316 µM, first compound 0.000316 µM): 101% | viability, T/C (second compound 0.0316 µM, first compound 0.001 µM): 99% | viability, T/C (second compound 0.0316 µM, first compound 0.00316 µM): 101% | viability, T/C (second compound 0.0316 µM, first compound 0.01 µM): 82% | viability, T/C [1]: 22.1% | viability, T/C [2]: 9.06% | viability, T/C (second compound 0.1 µM, first compound 0.000316 µM): 94% | viability, T/C (second compound 0.1 µM, first compound 0.001 µM): 98.6% | viability, T/C (second compound 0.1 µM, first compound 0.00316 µM): 97.4% | viability, T/C (second compound 0.1 µM, first compound 0.01 µM): 83.3% | viability, T/C [3]: 36.1% | viability, T/C [4]: 8.11% | viability, T/C (second compound 0.316 µM, first compound 0.000316 µM): 90% | viability, T/C (second compound 0.316 µM, first compound 0.001 µM): 101% | viability, T/C (second compound 0.316 µM, first compound 0.00316 µM): 103% | viability, T/C (second compound 0.316 µM, first compound 0.01 µM): 107% | viability, T/C [5]: 26.7% | viability, T/C [6]: 10.8% | viability, T/C (second compound 1 µM, first compound 0.000316 µM): 93.6% | viability, T/C (second compound 1 µM, first compound 0.001 µM): 99.7% | viability, T/C (second compound 1 µM, first compound 0.00316 µM): 88.6% | viability, T/C (second compound 1 µM, first compound 0.01 µM): 84.6% | viability, T/C [7]: 24.1% | viability, T/C [8]: 8.54% | viability, T/C (second compound 3.16 µM, first compound 0.000316 µM): 98.4% | viability, T/C (second compound 3.16 µM, first compound 0.001 µM): 97.4% | viability, T/C (second compound 3.16 µM, first compound 0.00316 µM): 105% | viability, T/C (second compound 3.16 µM, first compound 0.01 µM): 94% | viability, T/C [9]: 17.8% | viability, T/C [10]: 7.35% | viability, T/C (second compound 10 µM, first compound 0.000316 µM): 103% | viability, T/C (second compound 10 µM, first compound 0.001 µM): 107% | viability, T/C (second compound 10 µM, first compound 0.00316 µM): 107% | viability, T/C (second compound 10 µM, first compound 0.01 µM): 85.8% | viability, T/C [11]: 24.6% | viability, T/C [12]: 7.99%

CC1COCCN1c1cc(C2(S(C)(=N)=O)CC2)nc(-c2ccnc3[nH]ccc23)n1 (centres undefined) + Cc1cccc(N(C)C(=O)C2C(O)CCN2c2nc(C)cc(C(F)(F)F)c2C#N)c1
IC50 (second compound 0.0316 µM): 488 nM | IC50 (second compound 0.1 µM): 447 nM | IC50 (second compound 0.316 µM): 441 nM | IC50 (second compound 1 µM): 473 nM | IC50 (second compound 3.16 µM): 422 nM | IC50 (second compound 10 µM): 501 nM | viability, T/C [1]: 88.4% | viability, T/C [2]: 102% | viability, T/C (second compound 0.0316 µM, first compound 0.316 µM): 70.3% | viability, T/C (second compound 0.0316 µM, first compound 1 µM): 15.8% | viability, T/C (second compound 0.0316 µM, first compound 3.16 µM): 6.51% | viability, T/C (second compound 0.0316 µM, first compound 10 µM): 5.21% | viability, T/C [3]: 92.8% | viability, T/C [4]: 96.3% | viability, T/C (second compound 0.1 µM, first compound 0.316 µM): 65% | viability, T/C (second compound 0.1 µM, first compound 1 µM): 14.3% | viability, T/C (second compound 0.1 µM, first compound 3.16 µM): 5.97% | viability, T/C (second compound 0.1 µM, first compound 10 µM): 4.58% | viability, T/C [5]: 102% | viability, T/C [6]: 98.7% | viability, T/C (second compound 0.316 µM, first compound 0.316 µM): 62.8% | viability, T/C (second compound 0.316 µM, first compound 1 µM): 17.7% | viability, T/C (second compound 0.316 µM, first compound 3.16 µM): 6.78% | viability, T/C (second compound 0.316 µM, first compound 10 µM): 4.96% | viability, T/C [7]: 106% | viability, T/C [8]: 107% | viability, T/C (second compound 1 µM, first compound 0.316 µM): 70.2% | viability, T/C (second compound 1 µM, first compound 1 µM): 12.4% | viability, T/C (second compound 1 µM, first compound 3.16 µM): 6.47% | viability, T/C (second compound 1 µM, first compound 10 µM): 5.16% | viability, T/C [9]: 94.2% | viability, T/C [10]: 94.8% | viability, T/C (second compound 3.16 µM, first compound 0.316 µM): 62.4% | viability, T/C (second compound 3.16 µM, first compound 1 µM): 12.5% | viability, T/C (second compound 3.16 µM, first compound 3.16 µM): 6.4% | viability, T/C (second compound 3.16 µM, first compound 10 µM): 5.39% | viability, T/C [11]: 91.6% | viability, T/C [12]: 102% | viability, T/C (second compound 10 µM, first compound 0.316 µM): 72.7% | viability, T/C (second compound 10 µM, first compound 1 µM): 15.7% | viability, T/C (second compound 10 µM, first compound 3.16 µM): 6.3% | viability, T/C (second compound 10 µM, first compound 10 µM): 4.96%
